“Also recorded” adds a separate entry of the source. Numbered stars: 1 amine (or outer) side, 2 acyl side, 3 side chain; on linkers, the order of the positions; unused ones are H or OH. Bridge positions count the residues as written; N and C are the ends. Peptide text beside a SMILES is read from it. I, II: the chains in the order shown. X2 = C[C@@H](CNC(=O)N[C@@H](C)CNC(=O)N[C@@H](C)CNC(=O)N[C@@H](C)CNC(=O)[*:2])NC(=O)NC[C@H](CCC(=O)O)NC(=O)NC[C@H](Cc1ccc(O)cc1)N[*:1]; X5 = C[C@@H](CNC(=O)N[C@@H](C)CNC(=O)[*:2])NC(=O)NC[C@H](CCC(=O)O)N[*:1]; X1 = C[C@@H](CNC(=O)N[C@@H](C)CNC(=O)[*:2])NC(=O)NC[C@H](C)N[*:1]
Tests used:
[1] = target: T1, mouse GLP-1 receptor endogenously expressed in βTC6 cells (Mus musculus, UniProt O35659); assay: cAMP production functional assay (HTRF), agonist activity at GLP-1R; type: cell-based; conditions: for Potency (%), percentage of potency (cAMP production) compared to GLP-1-G^2: Table 2; for Potency (%), percentage of potency compare to GLP-1-G^2: cAMP production, Table 1; for EC50: receptor-mediated cAMP production, βTC6 cells, read-out: EC50 (nM), GLP-1R potency
T1 construct: host or cells: βTC6 cells
T1 sequence (O35659 22-463): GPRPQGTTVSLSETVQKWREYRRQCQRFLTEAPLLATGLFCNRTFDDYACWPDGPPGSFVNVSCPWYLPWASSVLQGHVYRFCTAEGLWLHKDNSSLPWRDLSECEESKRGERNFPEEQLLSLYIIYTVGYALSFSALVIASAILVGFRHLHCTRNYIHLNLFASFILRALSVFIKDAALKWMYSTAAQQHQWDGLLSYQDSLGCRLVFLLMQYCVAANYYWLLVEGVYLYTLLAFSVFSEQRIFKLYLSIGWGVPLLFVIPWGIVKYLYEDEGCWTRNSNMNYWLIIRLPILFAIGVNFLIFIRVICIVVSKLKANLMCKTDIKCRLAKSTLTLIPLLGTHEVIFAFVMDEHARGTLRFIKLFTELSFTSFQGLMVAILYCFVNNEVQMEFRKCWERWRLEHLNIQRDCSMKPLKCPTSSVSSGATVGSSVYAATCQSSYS
Experimental: The agonistic activity of these hybrids were obtained by functional assays using cells expressing the […] and by measuring the receptor-mediated cAMP produced (see supporting information).
In vitro pharmacology (EC50). […] Following incubation, the cells were lysed and the fluorescence acceptor (D2-labeled cAMP) and fluorescence donor (anti-cAMP antibody labeled with europium cryptate) were added.

normal mice (C57BL/6J) [2] = assay: Blood glucose experiment in healthy mice; type: in vivo, mouse; set-up: key to In vivo activity (indicator): + = active; +++: + + + = more active; conditions: for effect on blood glucose concentration / time the decrease of blood glucose is preserved after dosing: fed normal mice, 5 μg/mouse i.v.; for effect on blood glucose concentration: monitored 6 h; for In vivo activity (indicator): blood glucose, mice, i.v.
Experimental: In the first study, we evaluated the effect of the analogues on the blood glucose concentration of normal mice (FIG. 4). The fed mice were treated with the analogues and their blood glucose concentration was monitored before and after dosing for 6 h. […] Indeed, a decrease of blood glucose concentration is observed after 30 min and the effect is preserved for 4 h after dosing.
Blood glucose experiment in healthy mice. After the acclimation period (at least 5 days), mice (male C57BL/6J mice (Charles River laboratories) (8 weeks old, 20-25 g)) were randomized into 10 groups (n=3/group) according to their body weight. They were acutely treated via i.v. route at 10 AM (5 μg/mouse). Blood glucose was measured before dosing and at 30 min, 1, 2, 4, 6 h after dosing in fed conditions.

NEP 24.11 = NEP 24.11 (Homo sapiens, UniProt P08473); assay: in vitro; conditions: pH 8
Experimental: Enzymatic and mouse plasma degradation studies.
Enzymatic degradation (NEP 24.11). Stock solutions of the oligomers were prepared at a concentration of 400 μM in a solution of 50 mM HEPES buffer, 50 mM NaCl, 0.05% Tween-80, pH 8.0. Stock solution of NEP 24.11 was prepared at a concentration of 100 μg/mL in water. Stability of oligomers to NEP 24.11 was assessed by conducting protease reaction in a 96-well plates at 20° C. […] Each compound was also incubated in the absence of the enzyme (12 μL of HEPES buffer and 38 μL of oligomer). At the indicated time (1, 2, 4, 6 and 22 hours) an aliquot of 10 μL was removed from each experimental reaction and pipetting into 100 μL of 1% TFA solution to quench the reaction, (t=0 min was determined using the reaction without enzyme). A portion of the quenched reaction solution was analyzed by HPLC. The time course of peptide degradation was determined by integrating the area of each peak in a series of HPLC traces.

normal mice (C57BL/6J) [3] = assay: Intra peritoneal glucose tolerance test (IPGTT) in fasted normal mice; type: in vivo, mouse
Experimental: In a second study, an IPGTT was performed 30 min after i.v. injections of 1, 14 and the vehicle (FIGS. 5B1 and 5B2). […] A further IPGTT study was done with a glucose challenge after 2 h of the dosing to investigate the prolong activity of hybrids 14, 22, and 23 (FIGS. 5C1 and 5C2).
IPGTT experiments in mice. After the acclimation period (at least 5 days), mice (male C57BL/6J mice (Charles River laboratories) (6 weeks old, 20-24 g)) were randomized into 6 groups (n=6/group) according to their body weight. The mice were fasted for 6 h prior being acutely treated via i.v. route (5 μg/mouse i.v. (200 μg/kg, 50 nmol/kg)) formulated at 20 μg/mL in PBS 1×. The IPGTTs were performed (glucose 2 g/kg i.p.) 5 min, 30 min, 2 h or 4 h after dosing and blood glucose was measured 30, 60, 90 and 120 min after the glucose challenge.

Chain of NEP 24.11 (P08473 whole entry): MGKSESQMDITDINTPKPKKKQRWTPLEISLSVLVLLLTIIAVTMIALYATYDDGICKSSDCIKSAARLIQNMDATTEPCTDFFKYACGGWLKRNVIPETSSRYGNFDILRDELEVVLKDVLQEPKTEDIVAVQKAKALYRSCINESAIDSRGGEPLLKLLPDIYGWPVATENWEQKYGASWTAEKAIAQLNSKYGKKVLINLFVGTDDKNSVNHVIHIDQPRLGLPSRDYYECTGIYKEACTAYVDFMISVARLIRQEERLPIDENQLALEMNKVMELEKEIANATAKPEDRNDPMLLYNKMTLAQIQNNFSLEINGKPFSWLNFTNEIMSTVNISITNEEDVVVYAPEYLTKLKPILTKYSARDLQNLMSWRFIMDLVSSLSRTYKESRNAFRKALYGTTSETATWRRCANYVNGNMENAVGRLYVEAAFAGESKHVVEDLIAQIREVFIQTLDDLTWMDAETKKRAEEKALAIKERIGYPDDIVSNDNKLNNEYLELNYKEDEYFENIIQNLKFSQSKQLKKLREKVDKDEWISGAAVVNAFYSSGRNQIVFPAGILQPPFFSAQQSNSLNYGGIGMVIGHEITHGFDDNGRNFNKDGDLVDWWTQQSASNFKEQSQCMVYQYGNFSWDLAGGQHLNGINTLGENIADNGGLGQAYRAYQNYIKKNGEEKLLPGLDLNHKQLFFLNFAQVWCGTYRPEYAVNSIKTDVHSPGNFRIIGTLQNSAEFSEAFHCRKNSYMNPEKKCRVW

Compound	Potency (%), percentage of potency (cAMP production) compared to GLP-1-G^2 [1] [%]	Potency (%), percentage of potency compare to GLP-1-G^2 [1] [%]	effect on blood glucose concentration (normal mice (C57BL/6J) [2])	half-life at […] (NEP 24.11) [h]	EC50 [1] [nM]	In vivo activity (indicator) (normal mice (C57BL/6J) [2])	time the decrease of blood glucose is preserved after dosing (normal mice (C57BL/6J) [2]) [h]	activity in IPGTT 5 min after dosing, 60 min after the glucose challenge (normal mice (C57BL/6J) [3]; 65 min after dosing, compared to vehicle)	IPGTT 2 h after dosing (normal mice (C57BL/6J) [3]; fasted mice, 200 μg/kg i.v.)	IPGTT 4 h after dosing (normal mice (C57BL/6J) [3]; fasted mice, 200 μg/kg i.v.)	activity in IPGTT 30 min after dosing (normal mice (C57BL/6J) [3]; fasted mice, 200 μg/kg i.v.)	activity in IPGTT 5 min after dosing (normal mice (C57BL/6J) [3]; fasted mice, 200 μg/kg i.v., glucose 2 g/kg i.p.)	loss of affinity with GLP-1R compared to the native peptide [1]
CC[C@H](C)[C@H](NC(=O)[C@H](Cc1ccccc1)NC(=O)[C@H](CCC(=O)O)NC(=O)[C@H](CCCCN)NC(=O)[C@H](C)NC(=O)NC[C@H](C)NC(=O)NC[C@H](C)NC(=O)NC[C@H](CCC(=O)O)NC(=O)[C@H](CC(C)C)NC(=O)[C@H](Cc1ccc(O)cc1)NC(=O)[C@H](CO)NC(=O)[C@H](CO)NC(=O)[C@@H](NC(=O)[C@H](CC(=O)O)NC(=O)[C@H](CO)NC(=O)[C@@H](NC(=O)[C@H](Cc1ccccc1)NC(=O)[C@@H](NC(=O)CNC(=O)[C@H](CCC(=O)O)NC(=O)CNC(=O)[C@@H](N)Cc1c[nH]cn1)[C@@H](C)O)[C@@H](C)O)C(C)C)C(=O)N[C@@H](C)C(=O)N[C@@H](Cc1c[nH]c2ccccc12)C(=O)N[C@@H](CC(C)C)C(=O)N[C@H](C(=O)N[C@@H](CCCCN)C(=O)NCC(=O)N[C@@H](CCCNC(=N)N)C(=O)NCC(N)=O)C(C)C [Compound 11, GG2[E^UA^UA^U]^15-18] (I: H-HGEGTFTSDVSSYL / II: AKEFIAWLVKGRG-NH2; linker I:C-II:N via X5)	13	13	no activity; also recorded: no effect	3.9									
CC[C@H](C)[C@H](NC(=O)[C@H](Cc1ccccc1)NC(=O)NC[C@H](C)NC(=O)NC[C@H](C)NC(=O)NC[C@H](C)NC(=O)[C@H](CCC(N)=O)NC(=O)CNC(=O)[C@H](CCC(=O)O)NC(=O)[C@H](CC(C)C)NC(=O)[C@H](Cc1ccc(O)cc1)NC(=O)[C@H](CO)NC(=O)[C@H](CO)NC(=O)[C@@H](NC(=O)[C@H](CC(=O)O)NC(=O)[C@H](CO)NC(=O)[C@@H](NC(=O)[C@H](Cc1ccccc1)NC(=O)[C@@H](NC(=O)CNC(=O)[C@H](CCC(=O)O)NC(=O)CNC(=O)[C@@H](N)Cc1c[nH]cn1)[C@@H](C)O)[C@@H](C)O)C(C)C)C(=O)N[C@@H](C)C(=O)N[C@@H](Cc1c[nH]c2ccccc12)C(=O)N[C@@H](CC(C)C)C(=O)N[C@H](C(=O)N[C@@H](CCCCN)C(=O)NCC(=O)N[C@@H](CCCNC(=N)N)C(=O)NCC(N)=O)C(C)C [Compound 14, GG2[A^UA^UA^U]^18-21] (I: H-HGEGTFTSDVSSYLEGQ / II: FIAWLVKGRG-NH2; linker I:C-II:N via X1)	6	6	improved efficacy	4.9	4.1	+++	4	still active	good control of the blood glucose concentration	still active after 6 h of the treatment	full activity	active	
CC[C@H](C)[C@@H](CNC(=O)N[C@@H](C)CNC(=O)N[C@@H](CC(C)C)C(=O)N[C@H](C(=O)N[C@@H](CCCCN)C(=O)NCC(=O)N[C@@H](CCCNC(=N)N)C(=O)NCC(N)=O)C(C)C)NC(=O)N[C@@H](CNC(=O)[C@H](CCC(=O)O)NC(=O)[C@H](CCCCN)NC(=O)[C@H](C)NC(=O)[C@H](C)NC(=O)[C@H](CCC(N)=O)NC(=O)CNC(=O)[C@H](CCC(=O)O)NC(=O)[C@H](CC(C)C)NC(=O)[C@H](Cc1ccc(O)cc1)NC(=O)[C@H](CO)NC(=O)[C@H](CO)NC(=O)[C@@H](NC(=O)[C@H](CC(=O)O)NC(=O)[C@H](CO)NC(=O)[C@@H](NC(=O)[C@H](Cc1ccccc1)NC(=O)[C@@H](NC(=O)CNC(=O)[C@H](CCC(=O)O)NC(=O)CNC(=O)[C@@H](N)Cc1c[nH]cn1)[C@@H](C)O)[C@@H](C)O)C(C)C)Cc1ccccc1 [Compound 16, GG2[F^UαI^UA^U]^22-25]	0.4	0.4	no activity; also recorded: no effect	1.8	62								over a hundred fold loss
CC[C@H](C)[C@H](NC(=O)[C@H](Cc1ccccc1)NC(=O)NC[C@H](C)NC(=O)NC[C@H](C)NC(=O)NC[C@H](C)NC(=O)NC[C@H](C)NC(=O)NC[C@H](CCC(=O)O)NC(=O)NC[C@H](Cc1ccc(O)cc1)NC(=O)[C@H](Cc1ccc(O)cc1)NC(=O)[C@H](CO)NC(=O)[C@H](CO)NC(=O)[C@@H](NC(=O)[C@H](CC(=O)O)NC(=O)[C@H](CO)NC(=O)[C@@H](NC(=O)[C@H](Cc1ccccc1)NC(=O)[C@@H](NC(=O)CNC(=O)[C@H](CCC(=O)O)NC(=O)CNC(=O)[C@@H](N)Cc1c[nH]cn1)[C@@H](C)O)[C@@H](C)O)C(C)C)C(=O)N[C@@H](C)C(=O)N[C@@H](Cc1c[nH]c2ccccc12)C(=O)N[C@@H](CC(C)C)C(=O)N[C@H](C(=O)N[C@@H](CCCCN)C(=O)NCC(=O)N[C@@H](CCCNC(=N)N)C(=O)NCC(N)=O)C(C)C [Compound 23, GG2[Y^uE^uA^uA^uA^uA^u]^14-21] (I: H-HGEGTFTSDVSSY / II: FIAWLVKGRG-NH2; linker I:C-II:N via X2)	7	7	improved efficacy	6.1	3.4	+++	4		good control of the blood glucose concentration				
